Measured values: PubChem BioAssay AID256 (DTP/NCI, 2004)
Values joined by “and” are separate entries in the source; they are usually repeats but may differ in a detail not shown here. Identical values can stand only once. Inconclusive results and toxic doses are left out. How the source made its calls: active means survival T/C of 150% or more; inactive means T/C below 125% in these data.

Test system: CD2F1 mice, L1210 leukemia ip, survival T/C
Experiment: NCI In Vivo Anticancer Drug Screen. Data for tumor model L1210 Leukemia (intraperitoneal) in CD2F1 (CDF1) mice
Settings: higher = longer survival
How it was run: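 Tumor-bearing mice (transplanted tumor) were split into treated and vehicle control groups, and the measured endpoint of each treated group was divided by that of its vehicle controls.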

[1] = endpoint: mean survival time, dose: 100.0 mg/kg/injection, schedule: Q04DX003 (ip), vehicle: saline with Tween-80
[2] = endpoint: mean survival time, dose: 200.0 mg/kg/injection, schedule: Q04DX003 (ip), vehicle: saline with Tween-80
[3] = endpoint: mean survival time, dose: 400.0 mg/kg/injection, schedule: Q04DX003 (ip), vehicle: saline with Tween-80
[4] = endpoint: mean survival time, dose: 12.5 mg/kg/injection, schedule: Q01DX009 (ip), vehicle: saline with Tween-80
[5] = endpoint: mean survival time, dose: 25.0 mg/kg/injection, schedule: Q01DX009 (ip), vehicle: saline with Tween-80
[6] = endpoint: mean survival time, dose: 100.0 mg/kg/injection, schedule: Q01DX001 (ip), vehicle: other
[7] = endpoint: mean survival time, dose: 200.0 mg/kg/injection, schedule: Q01DX001 (ip), vehicle: other
[8] = endpoint: mean survival time, dose: 400.0 mg/kg/injection, schedule: Q01DX001 (ip), vehicle: other
[9] = endpoint: mean survival time, dose: 100.0 mg/kg/injection, schedule: Q01DX001 (ip), vehicle: saline with Tween-80
[10] = endpoint: mean survival time, dose: 200.0 mg/kg/injection, schedule: Q01DX001 (ip), vehicle: saline with Tween-80
[11] = endpoint: mean survival time, dose: 400.0 mg/kg/injection, schedule: Q01DX001 (ip), vehicle: saline with Tween-80
[12] = endpoint: mean survival time, dose: 100.0 mg/kg/injection, schedule: Q01DX009 (ip), vehicle: saline with Tween-80
[13] = endpoint: mean survival time, dose: 200.0 mg/kg/injection, schedule: Q01DX009 (ip), vehicle: saline with Tween-80
[14] = endpoint: mean survival time, dose: 400.0 mg/kg/injection, schedule: Q01DX009 (ip), vehicle: saline with Tween-80

Measured: T/C

ClSc1c(Cl)c(Cl)c(Cl)c(Cl)c1Cl
inactive: [1] 95 % of control | [2] 101 % of control | [3] 95 % of control

O=C(CCl)Nc1cc(C(F)(F)F)ccc1Cl
inactive: endpoint: mean survival time, dose: 6.25 mg/kg/injection, schedule: Q01DX009 (ip), vehicle: saline with Tween-80 101 % of control | [4] 101 % of control | [5] 104 % of control | [1] 104 % of control | [2] 97 % of control | [3] 97 % of control

c1coc(CNC2=NCCO2)c1
inactive: [6] 95 % of control | [7] 103 % of control | [8] 90 % of control

Nc1ccn(C2OC(C(OC3OC(CO)C(O)C(N)C3O)C(O)C(O)C(O)C(O)CO)C(N)C(O)C2O)c(=O)n1 (stereo unspecified)
inactive: endpoint: mean survival time, dose: 0.1 mg/kg/injection, schedule: Q01DX005 (ip), vehicle: saline 104 % of control | endpoint: mean survival time, dose: 0.2 mg/kg/injection, schedule: Q01DX005 (ip), vehicle: saline 102 % of control | endpoint: mean survival time, dose: 0.4 mg/kg/injection, schedule: Q01DX005 (ip), vehicle: saline 101 % of control

O=[N+]([O-])c1cc(C(F)(F)F)cc([N+](=O)[O-])c1Cl
inactive: endpoint: mean survival time, dose: 1.56 mg/kg/injection, schedule: Q04DX003 (ip), vehicle: Klucel (hydroxypropylcellulose) (HPC) 98 % of control and 101 % of control | endpoint: mean survival time, dose: 3.12 mg/kg/injection, schedule: Q04DX003 (ip), vehicle: Klucel (hydroxypropylcellulose) (HPC) 98 % of control and 102 % of control | endpoint: mean survival time, dose: 6.25 mg/kg/injection, schedule: Q04DX003 (ip), vehicle: Klucel (hydroxypropylcellulose) (HPC) 95 % of control and 98 % of control | endpoint: mean survival time, dose: 12.5 mg/kg/injection, schedule: Q04DX003 (ip), vehicle: Klucel (hydroxypropylcellulose) (HPC) 90 % of control and 98 % of control

c1ccc(-c2cscc2-c2ccccc2)cc1
inactive: [9] 96 % of control | [10] 96 % of control | [11] 96 % of control

O=C(O)Cc1c(Cl)cccc1[N+](=O)[O-]
inactive: [6] 116 % of control | [7] 101 % of control | [8] 104 % of control

CCOC(=O)/C(=C/c1ccc(OCc2ccccc2)cc1)P(=O)(OCC)OCC
inactive: [1] 98 % of control | [2] 96 % of control | [3] 101 % of control

O=C1C=C(N2CCOCC2)C(=O)c2nccnc21
inactive: endpoint: mean survival time, dose: 25.0 mg/kg/injection, schedule: Q04DX003 (ip), vehicle: saline with Tween-80 95 % of control | endpoint: mean survival time, dose: 50.0 mg/kg/injection, schedule: Q04DX003 (ip), vehicle: saline with Tween-80 95 % of control

CCCCCCCCCC(=O)NC(=S)Nc1cccc(C(C)=O)c1
inactive: [9] 89 % of control | [12] 87 % of control and 95 % of control | endpoint: mean survival time, dose: 100.0 mg/kg/injection, schedule: Q04DX002 (ip), vehicle: saline with Tween-80 88 % of control and 104 % of control | [1] 93 % of control | [10] 88 % of control | [13] 91 % of control and 109 % of control | endpoint: mean survival time, dose: 200.0 mg/kg/injection, schedule: Q04DX002 (ip), vehicle: saline with Tween-80 92 % of control and 96 % of control | [2] 91 % of control | [14] 95 % of control | endpoint: mean survival time, dose: 400.0 mg/kg/injection, schedule: Q04DX002 (ip), vehicle: saline with Tween-80 88 % of control and 90 % of control | [3] 95 % of control

O=[N+]([O-])c1ccc(SC(=S)N(c2ccccc2)c2ccccc2)c([N+](=O)[O-])c1
inactive: endpoint: mean survival time, dose: 100.0 mg/kg/injection, schedule: Q01DX001 (ip), vehicle: Klucel (hydroxypropylcellulose) (HPC) 87 % of control | endpoint: mean survival time, dose: 200.0 mg/kg/injection, schedule: Q01DX001 (ip), vehicle: Klucel (hydroxypropylcellulose) (HPC) 91 % of control | endpoint: mean survival time, dose: 400.0 mg/kg/injection, schedule: Q01DX001 (ip), vehicle: Klucel (hydroxypropylcellulose) (HPC) 100 % of control

O=C(NCCSC(=O)Nc1ccccc1)Nc1ccccc1
inactive: [12] 95 % of control | [13] 94 % of control | [14] 94 % of control

O=S(=O)(O)c1cc(O)ccc1O.O=S(=O)(O)c1cc(O)ccc1O.[NH-]C1CCCCC1[NH-].[Pt+2]
active: endpoint: median survival time, dose: 25.0 mg/kg/injection, schedule: Q04DX003 (ip), vehicle: saline 162 % of control | endpoint: median survival time, dose: 50.0 mg/kg/injection, schedule: Q04DX003 (ip), vehicle: saline 150 % of control and 337 % of control | endpoint: median survival time, dose: 100.0 mg/kg/injection, schedule: Q04DX003 (ip), vehicle: saline 235 % of control and 375 % of control
inactive: endpoint: median survival time, dose: 6.25 mg/kg/injection, schedule: Q04DX003 (ip), vehicle: saline 117 % of control | endpoint: median survival time, dose: 12.5 mg/kg/injection, schedule: Q04DX003 (ip), vehicle: saline 123 % of control

C1CCC2CCCN2CC1 (stereo unspecified)
inactive: [4] 95 % of control | endpoint: mean survival time, dose: 12.5 mg/kg/injection, schedule: Q04DX003 (ip), vehicle: acetone 94 % of control | [5] 94 % of control | endpoint: mean survival time, dose: 25.0 mg/kg/injection, schedule: Q04DX003 (ip), vehicle: acetone 92 % of control | endpoint: mean survival time, dose: 50.0 mg/kg/injection, schedule: Q04DX003 (ip), vehicle: acetone 100 % of control

O=C1NC(=NC2CCCCC2)C2(CCN(CC3COc4ccccc4O3)CC2)N1c1ccccc1 (stereo unspecified)
inactive: [9] 91 % of control | [10] 95 % of control | [11] 101 % of control

Cc1ccc(/C(O)=C2/CC(C)(C)c3ccccc3C2=O)cc1
inactive: endpoint: mean survival time, dose: 100.0 mg/kg/injection, schedule: Q04DX003 (ip), vehicle: acetone 92 % of control | endpoint: mean survival time, dose: 200.0 mg/kg/injection, schedule: Q04DX003 (ip), vehicle: acetone 92 % of control | endpoint: mean survival time, dose: 400.0 mg/kg/injection, schedule: Q04DX003 (ip), vehicle: acetone 88 % of control

OC1CCSc2ccc3ccccc3c21 (stereo unspecified)
inactive: [9] 108 % of control | [10] 105 % of control | [11] 103 % of control

COc1ccc(OC)c2[nH]c(=O)c(CCC(=O)O)nc12
inactive: [9] 98 % of control | [10] 92 % of control

CC1=C(C)C(=O)C(SC2CC(=O)OC2=O)=C(C)C1=O (stereo unspecified)
inactive: endpoint: mean survival time, dose: 25.0 mg/kg/injection, schedule: Q01DX001 (ip), vehicle: saline with Tween-80 108 % of control | endpoint: mean survival time, dose: 50.0 mg/kg/injection, schedule: Q01DX001 (ip), vehicle: saline with Tween-80 96 % of control | [9] 104 % of control

c1ccc(COCCOCc2ccccc2)cc1
inactive: [1] 96 % of control | [2] 97 % of control | [3] 108 % of control

NC(=O)c1cn(C2OC(CO)C(O)C2O)c2nc(N)nc(N)c2c1=O (stereo unspecified)
inactive: endpoint: mean survival time, dose: 12.5 mg/kg/injection, schedule: Q01DX005 (ip), vehicle: water 104 % of control | endpoint: mean survival time, dose: 25.0 mg/kg/injection, schedule: Q01DX005 (ip), vehicle: water 104 % of control | endpoint: mean survival time, dose: 50.0 mg/kg/injection, schedule: Q01DX005 (ip), vehicle: water 104 % of control | endpoint: mean survival time, dose: 100.0 mg/kg/injection, schedule: Q01DX005 (ip), vehicle: water 124 % of control | endpoint: median survival time, dose: 50.0 mg/kg/injection, schedule: Q01DX005 (ip), vehicle: saline with Tween-80 103 % of control and 107 % of control | endpoint: median survival time, dose: 100.0 mg/kg/injection, schedule: Q01DX005 (ip), vehicle: saline with Tween-80 105 % of control and 110 % of control | endpoint: median survival time, dose: 200.0 mg/kg/injection, schedule: Q01DX005 (ip), vehicle: saline with Tween-80 115 % of control and 106 % of control | endpoint: median survival time, dose: 400.0 mg/kg/injection, schedule: Q01DX005 (ip), vehicle: saline with Tween-80 117 % of control

CSCC(NC(=O)OCc1ccccc1)C(=O)O (stereo unspecified)
inactive: [1] 101 % of control | [2] 101 % of control

COc1ccccc1C(=O)CC(O)(C(F)(F)F)C(F)(F)F
inactive: [9] 95 % of control | [10] 100 % of control | [11] 109 % of control

CCCCOC(=O)C(N)=O
inactive: endpoint: mean survival time, dose: 100.0 mg/kg/injection, schedule: Q01DX009 (ip), vehicle: Klucel (hydroxypropylcellulose) (HPC) 94 % of control | [1] 97 % of control | endpoint: mean survival time, dose: 200.0 mg/kg/injection, schedule: Q01DX009 (ip), vehicle: Klucel (hydroxypropylcellulose) (HPC) 100 % of control | [2] 100 % of control | endpoint: mean survival time, dose: 400.0 mg/kg/injection, schedule: Q01DX009 (ip), vehicle: Klucel (hydroxypropylcellulose) (HPC) 93 % of control | [3] 102 % of control

COc1cc(C(=O)c2c(OC)cccc2C(=O)O)c(OC)cc1C
inactive: endpoint: mean survival time, dose: 12.5 mg/kg/injection, schedule: Q01DX009 (ip), vehicle: water 100 % of control | endpoint: mean survival time, dose: 25.0 mg/kg/injection, schedule: Q01DX009 (ip), vehicle: water 100 % of control | endpoint: mean survival time, dose: 50.0 mg/kg/injection, schedule: Q01DX009 (ip), vehicle: water 95 % of control | endpoint: mean survival time, dose: 100.0 mg/kg/injection, schedule: Q01DX009 (ip), vehicle: water 95 % of control | endpoint: mean survival time, dose: 200.0 mg/kg/injection, schedule: Q01DX009 (ip), vehicle: water 97 % of control

CC1OC(C)(C)OC1C(=O)O (stereo unspecified)
inactive: endpoint: mean survival time, dose: 25.0 mg/kg/injection, schedule: Q01DX009 (ip), vehicle: Klucel (hydroxypropylcellulose) (HPC) 92 % of control | endpoint: mean survival time, dose: 50.0 mg/kg/injection, schedule: Q01DX009 (ip), vehicle: Klucel (hydroxypropylcellulose) (HPC) 86 % of control

CCCCCCCCCCCSCCCCCCCCCCC
inactive: [12] 104 % of control | [1] 98 % of control | [13] 103 % of control | [2] 101 % of control | [14] 103 % of control | [3] 98 % of control
